Results from patent US20260008818A1, “CYCLIC PEPTIDE OR SALT THEREOF, AND USES THEREOF” (FUJIFILM Corporation, priority 2023, published 2026).
Numbered stars: 1 amine (or outer) side, 2 acyl side, 3 side chain; on linkers, the order of the positions; unused ones are H or OH. Bridge positions count the residues as written; N and C are the ends. Ends that are not written are not given here. acetyl = K(acetyl): lysine side chain modified with a haloacetyl group whose halogen is replaced by the thiol of another residue, giving a thioether ring, O=C(C[*:1])[*:2]; COCH2 = acetyl group that carries the bridge

system: Recombinant Human FGFR1 alpha (IIIc) Fc Chimera Protein; experiment: Binding affinity of enzymatically synthesized cyclic peptide to FGFR by ELISA; conditions: luminescence signal at reaction concentration 10 nmol/L, SEQ ID NO: 39 standardized to 1, enzyme synthesis product
Protocol: The binding affinity of the cyclic peptide to FGFR was evaluated using an ELISA method.
The binding affinity of the enzymatically synthesized cyclic peptide to FGFR was measured by evaluating the amount of the cyclic peptide bound to FGFR by ELISA.
First, 5 ng of Recombinant Human FGFR1 alpha (IIIc) Fc Chimera Protein CF (R&D systems, 658-FR-050) was immobilized in each well of a 96-well plate, and blocked with Pierce Protein-Free (PBS) Blocking Buffer (Thermo, 37572), and a cyclic peptide diluted with Can Get Signal Immunoreaction Enhancer Solution I (TOYOBO, NKB-101) was then added and reacted at room temperature for 3 hours. After washing with 0.05% Tween 20-containing phosphate buffered saline (PBS), an anti-Myc antibody (Cell Signaling, 14038S) diluted with Can Get Signal Immunoreaction Enhancer Solution II (TOYOBO, NKB-101) was added and reacted at room temperature for 2 hours. After washing with 0.05% Tween 20-containing PBS, SuperSignal ELISA Femto Substrate (Thermo, 37075) was added, and the luminescence amount was measured. The dose-response relationship was calculated from using the difference between the luminescence amount in the well in which FGFR was immobilized and the luminescence amount in the well in which FGFR was not immobilized, and the concentration of the cyclic peptide at the time of reaction, and the binding affinity to FGFR was evaluated according to the following evaluation criteria. The evaluation result preferably satisfies the evaluation criteria A, B, or C.
In a case where a value of a luminescence signal emitted by the cyclic peptide set forth in SEQ ID NO: 39 at a reaction concentration of 10 nmol/L is standardized to 1, evaluation criteria of the luminescence signal value emitted by the cyclic peptide at a reaction concentration of 10 nmol/L is as follows. • A: 0.7 or more • B: 0.5 or more and less than 0.7 • C: 0.1 or more and less than 0.5 • D: less than 0.1.

Row | Substance | Evaluation result of binding affinity to FGFR
1 | 84 (HCLYERLQFHGHEAPFRVKV; not fully specified; Description of Artificial Sequence: Cyclic peptide) [compound 84] | A (0.7 or more)
2 | 85 (HCIYERLQFHGHEAPFRVKV; not fully specified; Description of Artificial Sequence: Cyclic peptide) [compound 85] | A (0.7 or more)
3 | 86 (HCVYERLQFHGHEAPFRVKV; not fully specified; Description of Artificial Sequence: Cyclic peptide) [compound 86] | A (0.7 or more)
4 | 87 (HCFYERLQFHGHEAPFRVKV; not fully specified; Description of Artificial Sequence: Cyclic peptide) [compound 87] | A (0.7 or more)
5 | 88 (HCYYERLQFHGHEAPFRVKV; not fully specified; Description of Artificial Sequence: Cyclic peptide) [compound 88] | A (0.7 or more)
6 | 89 (HCWYERLQFHGHEAPFRVKV; not fully specified; Description of Artificial Sequence: Cyclic peptide) [compound 89] | A (0.7 or more)
7 | 90 (HCNYERLQFHGHEAPFRVKV; not fully specified; Description of Artificial Sequence: Cyclic peptide) [compound 90] | A (0.7 or more)
8 | 91 (HCQYERLQFHGHEAPFRVK(COCH2)V; thioether 2-19 via acetyl; not fully specified; printed as H-(C)-QYERLQFHGHEAPFRV-(K(acetyl))-V) [compound 91] | A (0.7 or more)
9 | 92 (HCTYERLQFHGHEAPFRVK(COCH2)V; thioether 2-19 via acetyl; not fully specified; printed as H-(C)-TYERLQFHGHEAPFRV-(K(acetyl))-V) [compound 92] | A (0.7 or more)
10 | 100 (HCSFERLQFHGHEAPFRVK(COCH2)V; thioether 2-19 (inferred)) [compound 100] | A (0.7 or more)
11 | 101 (HCSWERLQFHGHEAPFRVK(COCH2)V; thioether 2-19 (inferred)) [compound 101] | A (0.7 or more)
12 | 102 (HCSSERLQFHGHEAPFRVK(COCH2)V; thioether 2-19 (inferred)) [compound 102] | C (0.1 or more and less than 0.5)
13 | 103 (HCSTERLQFHGHEAPFRVK(COCH2)V; thioether 2-19 (inferred)) [compound 103] | A (0.7 or more)
14 | 104 (HCSHERLQFHGHEAPFRVK(COCH2)V; thioether 2-19 (inferred)) [compound 104] | C (0.1 or more and less than 0.5)
15 | 105 (HCSYERLQFHFHEAPFRVK(COCH2)V; thioether 2-19 (inferred)) [compound 105] | C (0.1 or more and less than 0.5)
16 | 106 (HCSYERLQFHWHEAPFRVK(COCH2)V; thioether 2-19 (inferred)) [compound 106] | C (0.1 or more and less than 0.5)
17 | 107 (HCSYERLQFHNHEAPFRVK(COCH2)V; thioether 2-19 (inferred)) [compound 107] | C (0.1 or more and less than 0.5)
18 | 108 (HCSYERLQFHQHEAPFRVK(COCH2)V; thioether 2-19 (inferred)) [compound 108] | C (0.1 or more and less than 0.5)
19 | 109 (HCSYERLQFHSHEAPFRVK(COCH2)V; thioether 2-19 (inferred)) [compound 109] | C (0.1 or more and less than 0.5)
20 | 110 (HCSYERLQFHGFEAPFRVK(COCH2)V; thioether 2-19 (inferred)) [compound 110] | B (0.5 or more and less than 0.7)
21 | 111 (HCSYERLQFHGYEAPFRVK(COCH2)V; thioether 2-19 (inferred)) [compound 111] | C (0.1 or more and less than 0.5)
22 | 112 (HCSYERLQFHGWEAPFRVK(COCH2)V; thioether 2-19 (inferred)) [compound 112] | B (0.5 or more and less than 0.7)

Continued, values first:

Row | Evaluation result of binding affinity to FGFR | Substance
23 | C (0.1 or more and less than 0.5) | 113 (HCSYERLQFHGHEGPFRVK(COCH2)V; thioether 2-19 (inferred)) [compound 113]
24 | C (0.1 or more and less than 0.5) | 114 (HCSYERLQFHGHEVPFRVK(COCH2)V; thioether 2-19 (inferred)) [compound 114]
25 | B (0.5 or more and less than 0.7) | 115 (HCSYERLQFHGHEANFRVK(COCH2)V; thioether 2-19 (inferred)) [compound 115]
26 | C (0.1 or more and less than 0.5) | 116 (HCSYERLQFHGHEAQFRVK(COCH2)V; thioether 2-19 (inferred)) [compound 116]
27 | B (0.5 or more and less than 0.7) | 117 (HCSYERLQFHGHEADFRVK(COCH2)V; thioether 2-19 (inferred)) [compound 117]
28 | C (0.1 or more and less than 0.5) | 118 (HCSYERLQFHGHEAHFRVK(COCH2)V; thioether 2-19 (inferred)) [compound 118]
29 | C (0.1 or more and less than 0.5) | 119 (HCSYERLQFHGHEAPYRVK(COCH2)V; thioether 2-19 (inferred)) [compound 119]
30 | B (0.5 or more and less than 0.7) | 120 (HCSYGRLQFHGHEAPFRVK(COCH2)V; thioether 2-19 (inferred)) [compound 120]
31 | A (0.7 or more) | 121 (HCSYPRLQFHGHEAPFRVK(COCH2)V; thioether 2-19 (inferred)) [compound 121]
32 | C (0.1 or more and less than 0.5) | 122 (HCSYLRLQFHGHEAPFRVK(COCH2)V; thioether 2-19 (inferred)) [compound 122]
33 | B (0.5 or more and less than 0.7) | 123 (HCSYIRLQFHGHEAPFRVK(COCH2)V; thioether 2-19 (inferred)) [compound 123]
34 | B (0.5 or more and less than 0.7) | 124 (HCSYVRLQFHGHEAPFRVK(COCH2)V; thioether 2-19 (inferred)) [compound 124]
35 | C (0.1 or more and less than 0.5) | 125 (HCSYFRLQFHGHEAPFRVK(COCH2)V; thioether 2-19 (inferred)) [compound 125]
36 | B (0.5 or more and less than 0.7) | 126 (HCSYYRLQFHGHEAPFRVK(COCH2)V; thioether 2-19 (inferred)) [compound 126]
37 | A (0.7 or more) | 127 (HCSYWRLQFHGHEAPFRVK(COCH2)V; thioether 2-19 (inferred)) [compound 127]
38 | B (0.5 or more and less than 0.7) | 128 (HCSYNRLQFHGHEAPFRVK(COCH2)V; thioether 2-19 (inferred)) [compound 128]
39 | A (0.7 or more) | 129 (HCSYQRLQFHGHEAPFRVK(COCH2)V; thioether 2-19 (inferred)) [compound 129]
40 | B (0.5 or more and less than 0.7) | 130 (HCSYSRLQFHGHEAPFRVK(COCH2)V; thioether 2-19 (inferred)) [compound 130]
41 | A (0.7 or more) | 131 (HCSYTRLQFHGHEAPFRVK(COCH2)V; thioether 2-19 (inferred)) [compound 131]
42 | B (0.5 or more and less than 0.7) | 132 (HCSYDRLQFHGHEAPFRVK(COCH2)V; thioether 2-19 (inferred)) [compound 132]
43 | B (0.5 or more and less than 0.7) | 133 (HCSYRRLQFHGHEAPFRVK(COCH2)V; thioether 2-19 (inferred)) [compound 133]
44 | A (0.7 or more) | 134 (HCSYHRLQFHGHEAPFRVK(COCH2)V; thioether 2-19 (inferred)) [compound 134]
45 | C (0.1 or more and less than 0.5) | 135 (HCSYEPLQFHGHEAPFRVK(COCH2)V; thioether 2-19 (inferred)) [compound 135]
46 | C (0.1 or more and less than 0.5) | 136 (HCSYELLQFHGHEAPFRVK(COCH2)V; thioether 2-19 (inferred)) [compound 136]
47 | A (0.7 or more) | 137 (HCSYEILQFHGHEAPFRVK(COCH2)V; thioether 2-19 (inferred)) [compound 137]
